Source: patent US10598672B2, “Methods and compositions for diagnosing and treating loss and/or distortion of taste or smell” (Cyrano Therapeutics, Inc., priority 2014, dated 2020)
Marks after values point to notes of the source that are not given here.

Experiments:
[1] = tested on: patients with hyposmia; test: Olfactometry: DT, RT, ME and H for pyridine, nitrobenzene, thiophene, amyl acetate; format: in vivo, human; details: for AMYL ACETATE DT, detection threshold / AMYL ACETATE H, hedonic value / AMYL ACETATE ME, magnitude estimation / AMYL ACETATE RT, recognition threshold / NI[…], detection threshold / NI[…], hedonic value / NI[…], magnitude estimation / NI[…], recognition threshold / PYRIDINE DT, detection threshold / PYRIDINE H, hedonic value / PYRIDINE ME, magnitude estimation / PYRIDINE RT, recognition threshold / THIOPHENE DT, detection threshold / THIOPHENE H, hedonic value / THIOPHENE ME, magnitude estimation / THIOPHENE RT, recognition threshold: hyposmic, oral theophylline, Mean ± SEM
[2] = Body weight with calibrated clinical scale; format: in vivo, human; details: 10 patients
Experimental: Serum theophylline levels were measured by fluorescence polarization at each treatment condition. Body weight was measured with a calibrated clinical scale during each study condition and reported at the final measurement in each study condition.

[3] = tested on: patients with hyposmia and hypogeusia; test: Adverse effects during intranasal theophylline pilot study; format: in vivo, human; details: intranasal drug use, 10 patients, 4 weeks
Excerpt: We performed an open-label pilot study in patients with hyposmia and hypogeusia under the following 3 conditions: (1) before treatment, (2) after oral theophylline treatment, and (3) after intranasal theophylline treatment. Under each condition, we performed subjective evaluations of taste or smell functions, quantitative measurements of taste (gustometry) and smell (olfactometry), and measurements of serum theophylline level and body weight.
A pilot study of intranasal theophylline treatment was then initiated among these 10 patients. This trial was an investigator initiated phase 1, open-label, single-source, controlled pilot study. Intranasal drug therapy reflected a compassionate trial of a potentially more useful therapeutic method to improve hyposmia (and hypogeusia) than oral theophylline. Before the intranasal trial, risks and benefits were explained and the patients signed an informed consent.
Each patient delivered the theophylline dose in each naris once daily throughout the study. Patients underwent evaluation 1, 2, and 4 weeks during drug use with the same measurements used for the oral study.

[4] = tested on: patients with hyposmia; details: previous open-label controlled clinical trial, 312 patients with hyposmia and hypogeusia, oral; cited from earlier work
[5] = ALL PATIENTS (31) treated with oral theophylline
[6] = ALLERGIC RHINITIS (11) treated with oral theophylline
[7] = CONGENITAL (9) treated with oral theophylline
[8] = PIHH (10) treated with oral theophylline
[9] = POST GENERAL ANESTHESIA (1) treated with oral theophylline
[10] = after intranasal treatment vs before treatment or after oral treatment
[11] = after oral treatment vs before treatment, 10 patients
[12] = hyposmic patients TREATED (31) with oral theophylline
[13] = oral theophylline dose 200 mg (6 patients)
[14] = oral theophylline dose 400 mg (6 patients)
[15] = oral theophylline dose 600 mg (14 patients)
[16] = oral theophylline dose 800 mg (5 patients)

Cn1c(=O)c2[nH]cnc2n(C)c1=O [theophylline]
SMELL IMPROVEMENT Patient (%) [1, 5]: 61%
SMELL IMPROVEMENT Patient Number [1, 5]: 19
SMELL IMPROVEMENT Patient (%) [1, 6]: 45%
SMELL IMPROVEMENT Patient Number [1, 6]: 5
SMELL IMPROVEMENT Patient (%) [1, 7]: 56%
SMELL IMPROVEMENT Patient Number [1, 7]: 5
SMELL IMPROVEMENT Patient (%) [1, 8]: 80%
SMELL IMPROVEMENT Patient Number [1, 8]: 8
SMELL IMPROVEMENT Patient (%) [1, 9]: 100%
SMELL IMPROVEMENT Patient Number [1, 9]: 1
AMYL ACETATE DT, detection threshold ([1]; TREATED MEN (19)): 4.7 ± 0.9^b BU
AMYL ACETATE H, hedonic value ([1]; TREATED MEN (19)): 3 ± 3%
AMYL ACETATE ME, magnitude estimation ([1]; TREATED MEN (19)): 17 ± 5%
AMYL ACETATE RT, recognition threshold ([1]; TREATED MEN (19)): 5.3 ± 0.9^a BU
NI[…], detection threshold ([1]; TREATED MEN (19)): 4.8 ± 1.1^b BU
NI[…], hedonic value ([1]; TREATED MEN (19)): 6 ± 5%
NI[…], magnitude estimation ([1]; TREATED MEN (19)): 19 ± 5%
NI[…], recognition threshold ([1]; TREATED MEN (19)): 5.2 ± 1.2^b BU
PYRIDINE DT, detection threshold ([1]; TREATED MEN (19)): 4.8 ± 0.9^a BU
PYRIDINE H, hedonic value ([1]; TREATED MEN (19)): −30 ± 7%
PYRIDINE ME, magnitude estimation ([1]; TREATED MEN (19)): 36 ± 7%
PYRIDINE RT, recognition threshold ([1]; TREATED MEN (19)): 5.6 ± 1.0^c BU
THIOPHENE DT, detection threshold ([1]; TREATED MEN (19)): 5.6 ± 0.9^b BU
THIOPHENE H, hedonic value ([1]; TREATED MEN (19)): −7 ± 3%
THIOPHENE ME, magnitude estimation ([1]; TREATED MEN (19)): 15 ± 5%
THIOPHENE RT, recognition threshold ([1]; TREATED MEN (19)): 7.6 ± 1.0 BU
AMYL ACETATE DT, detection threshold ([1]; TREATED WOMEN (12)): 7.4 ± 1.1 BU
AMYL ACETATE H, hedonic value ([1]; TREATED WOMEN (12)): 2 ± 6%
AMYL ACETATE ME, magnitude estimation ([1]; TREATED WOMEN (12)): 22 ± 7%
AMYL ACETATE RT, recognition threshold ([1]; TREATED WOMEN (12)): 8.7 ± 1.0 BU
NI[…], detection threshold ([1]; TREATED WOMEN (12)): 6.8 ± 1.4 BU
NI[…], hedonic value ([1]; TREATED WOMEN (12)): 8 ± 7%
NI[…], magnitude estimation ([1]; TREATED WOMEN (12)): 25 ± 8%
NI[…], recognition threshold ([1]; TREATED WOMEN (12)): 7.3 ± 1.1 BU
PYRIDINE DT, detection threshold ([1]; TREATED WOMEN (12)): 7.1 ± 0.9 BU
PYRIDINE H, hedonic value ([1]; TREATED WOMEN (12)): −38 ± 8%
PYRIDINE ME, magnitude estimation ([1]; TREATED WOMEN (12)): 42 ± 9%
PYRIDINE RT, recognition threshold ([1]; TREATED WOMEN (12)): 8.0 ± 1.0 BU
THIOPHENE DT, detection threshold ([1]; TREATED WOMEN (12)): 7.1 ± 1.2 BU
THIOPHENE H, hedonic value ([1]; TREATED WOMEN (12)): −19 ± 6%
THIOPHENE ME, magnitude estimation ([1]; TREATED WOMEN (12)): 30 ± 7%
THIOPHENE RT, recognition threshold ([1]; TREATED WOMEN (12)): 8.1 ± 1.3 BU
DTs and RTs for each odor [1, 10]: lower (more sensitive)
Hedonic responses to nitrobenzene [1, 10]: more positive (more pleasant)
Hedonic responses to thiophene [1, 10]: more negative (more unpleasant)
Magnitude estimations for each odor [1, 10]: higher (more intense)
DTs and RTs for all odorants [1, 11]: decreased (more sensitive)
HRs for all odorants [1, 11]: increased
MEs for all odorants [1, 11]: increased (more sensitive)
AMYL ACETATE DT [1, 12]: 1.2 ± 0.6^d,a2 BU
AMYL ACETATE H [1, 12]: 3 ± 4%
AMYL ACETATE ME [1, 12]: 17 ± 5^a2%
AMYL ACETATE RT [1, 12]: 5.5 ± 0.8^d BU
PYRIDINE DT [1, 12]: 5.7 ± 0.7^c,b2 BU
PYRIDINE H [1, 12]: −32 ± 6%
PYRIDINE ME [1, 12]: 40 ± 6%
PYRIDINE RT [1, 12]: 6.7 ± 0.8^d BU
THEOPHENE DT [1, 12]: 5.1 ± 0.7^e,a2 BU
THEOPHENE H [1, 12]: −9 ± 4^a2%
THEOPHENE ME [1, 12]: 18 ± 4^a2%
THEOPHENE RT [1, 12]: 5.5 ± 0.8^e,e2 BU
patients who exhibited improved smell function ([1]; hyposmic patients after oral treatment (text of Example 9)): 60%
AMYL ACETATE DT [1, 13]: 8.2 ± 2.1 BU
AMYL ACETATE H [1, 13]: 8 ± 8%
AMYL ACETATE ME [1, 13]: 12 ± 11%
AMYL ACETATE RT [1, 13]: 8.6 ± 1.9 BU
PYRIDINE DT [1, 13]: 8.4 ± 0.8 BU
PYRIDINE H [1, 13]: −34 ± 13%
PYRIDINE ME [1, 13]: 35 ± 15%
PYRIDINE RT [1, 13]: 9.8 ± 0.9 BU
THIOPHENE DT [1, 13]: 8.2 ± 1.8 BU
THIOPHENE H [1, 13]: −14 ± 11%
THIOPHENE RT [1, 13]: 8.8 ± 2.0 BU
Thiophene magnitude estimation (%) [1, 13]: 10 ± 15 BU
AMYL ACETATE DT [1, 14]: 6.0 ± 1.0 BU
AMYL ACETATE H [1, 14]: 0 ± 0%
AMYL ACETATE ME [1, 14]: 17 ± 10%
AMYL ACETATE RT [1, 14]: 6.2 ± 1.7 BU
PYRIDINE DT [1, 14]: 7.0 ± 1.8 BU
PYRIDINE H [1, 14]: −35 ± 15%
PYRIDINE ME [1, 14]: 43 ± 12%
PYRIDINE RT [1, 14]: 7.8 ± 2.2 BU
THIOPHENE DT [1, 14]: 6.2 ± 1.9 BU
THIOPHENE H [1, 14]: −6 ± 1%
THIOPHENE RT [1, 14]: 9.2 ± 2.4 BU
Thiophene magnitude estimation (%) [1, 14]: 0 ± 0 BU
AMYL ACETATE DT [1, 15]: 5.0 ± 1.2^c BU
AMYL ACETATE H [1, 15]: 14 ± 5%
AMYL ACETATE ME [1, 15]: 24 ± 8%
AMYL ACETATE RT [1, 15]: 5.4 ± 1.2^b BU
PYRIDINE DT [1, 15]: 5.2 ± 0.9^d BU
PYRIDINE H [1, 15]: −10 ± 8%
PYRIDINE ME [1, 15]: 50 ± 8%
PYRIDINE RT [1, 15]: 5.8 ± 1.1^d BU
THIOPHENE DT [1, 15]: 6.2 ± 1.1 BU
THIOPHENE H [1, 15]: −19 ± 7%
THIOPHENE RT [1, 15]: 7.9 ± 1.0 BU
Thiophene magnitude estimation (%) [1, 15]: 26 ± 7 BU
AMYL ACETATE DT [1, 16]: 4.0 ± 1.3^d BU
AMYL ACETATE H [1, 16]: 15 ± 12%
AMYL ACETATE ME [1, 16]: 17 ± 11%
AMYL ACETATE RT [1, 16]: 4.5 ± 1.0^b BU
PYRIDINE DT [1, 16]: 2.8 ± 1.2^a BU
PYRIDINE H [1, 16]: −20 ± 13%
PYRIDINE ME [1, 16]: 36 ± 15%
PYRIDINE RT [1, 16]: 4.0 ± 1.8^d BU
THIOPHENE DT [1, 16]: 4.0 ± 1.5^d BU
THIOPHENE H [1, 16]: −15 ± 16%
THIOPHENE RT [1, 16]: 5.2 ± 1.4 BU
Thiophene magnitude estimation (%) [1, 16]: 29 ± 16 BU
weight increase from pretreatment values, mean (SEM) ([2]; after intranasal treatment): 2.5 (0.5) kg
weight increase from pretreatment values, mean (SEM) ([2]; after oral treatment): 1.5 (0.4) kg
adverse effects [3]: No adverse effects
patients in whom hyposmia was successfully corrected [4]: more than 50%
